Test results from PubChem BioAssay (NCI).
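Grown in 96-well plates, cells were treated for 48 hours with each compound at five concentrations. Insufficient inhibition: endpoint recorded as highest concentration tested. GI50 is the concentration that inhibits growth by half. TGI: concentration producing complete growth inhibition.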

Experiments:
Assay in all cases: DTP human tumour cell line panel, 48 h
[1] = tested on: MALME-3M melanoma
[2] = tested on: NCI-H226 lung
[3] = tested on: RPMI-8226 leukemia
[4] = tested on: OVCAR-4 ovarian
[5] = tested on: A498 renal
[6] = tested on: CCRF-CEM leukemia
[7] = tested on: NCI-H23 lung
[8] = tested on: HT29 colon
[9] = tested on: SNB-19 CNS
[10] = tested on: NCI/ADR-RES ovarian

SMILES: COC(=O)C1=CO[C@@H](OC2CC(CO)C(O)C(O)C2O)[C@@H]2[C@@H](C)[C@@H](OC(=O)/C=C/c3ccccc3)[C@@H](O)[C@H]12 (stereo partly drawn) (tested in a mixture with another compound)
- TGI [1]: > 100 µM
- TGI [2]: > 100 µM
- TGI [3]: > 100 µM
- TGI [4]: > 100 µM
- TGI [5]: > 100 µM
- TGI [6]: > 100 µM
- TGI [7]: > 100 µM
- TGI [8]: > 100 µM

SMILES: Nc1ncnc2c1ncn2C1OC(CSCC(F)(F)F)C(O)C1O (stereo not drawn)
- TGI [1]: > 100 µM
- TGI [2]: > 100 µM
- TGI [3]: > 100 µM
- TGI [4]: > 100 µM
- TGI [9]: > 100 µM
- TGI [7]: > 100 µM
- TGI [8]: > 100 µM

SMILES: CN(C(=O)/C=C/c1ccccc1)C1C2CN3CCC(O2)C13 (stereo not drawn)
- TGI [1]: > 100 µM
- TGI [2]: > 100 µM
- TGI [4]: > 100 µM
- TGI [5]: > 100 µM
- TGI [6]: > 100 µM
- TGI [9]: > 100 µM
- TGI [7]: > 100 µM
- TGI [8]: > 100 µM

SMILES: Oc1cccc(Nc2nc3ccccc3c3occc23)c1
- GI50 [10]: 11.3 µM
- TGI [10]: 23.4 µM
- GI50 [3]: 4.98 µM
- TGI [3]: 18.2 µM
- GI50 [4]: 3.8 µM
- TGI [4]: 22.1 µM
- GI50 [9]: 10.5 µM
- TGI [9]: 22.2 µM

SMILES: O=C1C=CC(=O)c2c1ccc1c3ccccc3n(Cc3ccc([N+](=O)[O-])cc3)c21
- TGI [10]: > 100 µM
- TGI [2]: > 100 µM
- TGI [4]: > 100 µM
- TGI [6]: 40.8 µM
- TGI [9]: > 100 µM
- TGI [7]: > 100 µM
- TGI [8]: > 100 µM

SMILES: N#C[Se]Cc1cc(-c2ccccc2)n(-c2ccc(S(N)(=O)=O)cc2)n1
- GI50 [10]: 5.51 µM
- TGI [10]: 40 µM
- GI50 [1]: 2.2 µM
- TGI [1]: 6.6 µM
- GI50 [2]: 0.249 µM
- TGI [2]: 0.648 µM
- GI50 [3]: 1.9 µM
- TGI [3]: 5.02 µM
- GI50 [4]: 2.61 µM
- TGI [4]: 8.16 µM
- GI50 [6]: 0.914 µM
- TGI [6]: > 27.3 µM
- GI50 [9]: 0.587 µM
- TGI [9]: 1.88 µM
- GI50 [7]: 0.495 µM
- TGI [7]: 2.55 µM
- GI50 [8]: 1.46 µM
- TGI [8]: 3.36 µM

SMILES: Cc1c(/C=N/NC(=O)c2ccccc2O)c(=O)n(-c2ccccc2)n1C
- TGI [1]: > 100 µM
- TGI [2]: > 100 µM
- TGI [3]: > 100 µM
- TGI [4]: > 100 µM
- TGI [6]: > 100 µM
- TGI [9]: > 100 µM
- TGI [7]: > 100 µM
- TGI [8]: > 100 µM

SMILES: COC1=NCc2ccccc2-c2ccccc21
- TGI [1]: > 100 µM
- TGI [2]: > 100 µM
- TGI [4]: > 100 µM
- TGI [6]: > 100 µM
- TGI [9]: > 100 µM
- TGI [7]: > 100 µM
- TGI [8]: > 100 µM

SMILES: O=c1ncccn1[C@@H]1O[C@H](CO)[C@H](O)C1O (stereo partly drawn)
- TGI [1]: > 100 µM
- TGI [2]: > 100 µM
- TGI [3]: > 100 µM
- TGI [4]: > 100 µM
- TGI [5]: > 100 µM
- TGI [6]: > 100 µM
- TGI [9]: > 100 µM
- TGI [7]: > 100 µM
- TGI [8]: > 100 µM

SMILES: COC(=O)/C(=N\NC(C)(C)C)C(C(=O)OC)C(=O)C(=O)Nc1cc(Cl)ccc1Cl (stereo not drawn)
- TGI [1]: > 100 µM
- TGI [2]: > 100 µM
- TGI [4]: > 100 µM
- TGI [5]: > 100 µM
- TGI [6]: > 100 µM
- TGI [9]: > 100 µM
- TGI [7]: > 100 µM
- TGI [8]: > 100 µM

SMILES: C[N+](C)(C)CCC(=O)CC[N+](C)(C)C
- TGI [1]: 47.6 µM
- TGI [3]: 21.6 µM
- TGI [4]: 34.8 µM
- TGI [5]: > 100 µM
- TGI [6]: 7.42 µM
- TGI [9]: > 100 µM
- TGI [7]: 55.9 µM
- TGI [8]: 31.6 µM

SMILES: O=C(/C=C/c1ccccc1)Oc1cccc2cccnc12
- TGI [1]: 11.4 µM
- TGI [2]: > 66.7 µM
- TGI [3]: > 100 µM
- TGI [4]: 27.6 µM
- TGI [6]: > 29.3 µM
- TGI [9]: > 75.2 µM
- TGI [7]: 20 µM
- TGI [8]: 29.3 µM

SMILES: CC(=O)OCc1c2ccccc2c(C)c2c1cc(F)c1ccccc12
- TGI [1]: > 100 µM
- TGI [2]: > 100 µM
- TGI [4]: 77.9 µM
- TGI [5]: > 100 µM
- TGI [6]: 40.5 µM
- TGI [9]: 82.4 µM
- TGI [7]: 68.4 µM
- TGI [8]: 42.4 µM

SMILES: Cn1c(=O)nc2n(-c3ccc(O)cc3)c3ccccc3nc-2c1=O
- TGI [1]: 69.4 µM
- TGI [2]: > 100 µM
- TGI [3]: > 100 µM
- TGI [4]: > 100 µM
- TGI [5]: > 100 µM
- TGI [6]: > 100 µM
- TGI [9]: > 100 µM
- TGI [7]: > 100 µM
- TGI [8]: > 100 µM

SMILES: CCSCCCSCCSCC
- TGI [4]: > 100 µM
- TGI [6]: > 100 µM
- TGI [9]: > 100 µM
- TGI [7]: > 100 µM
- TGI [8]: > 100 µM

SMILES: Cc1cc2c(C)nn(Cc3ccccc3)c2c(C(=O)O)c1C
- TGI [1]: > 100 µM
- TGI [2]: > 100 µM
- TGI [3]: > 100 µM
- TGI [6]: > 100 µM
- TGI [9]: > 100 µM
- TGI [7]: > 100 µM

SMILES: CC1=C(C(=O)Nc2ccccc2C)C(c2ccc(Cl)cc2)C(C(=O)Nc2ccccc2C)=C(C)N1
- TGI [1]: > 100 µM
- TGI [2]: > 100 µM
- TGI [3]: > 100 µM
- TGI [4]: > 100 µM
- TGI [6]: > 100 µM
- TGI [9]: > 100 µM
- TGI [7]: > 100 µM
- TGI [8]: > 100 µM

SMILES: O=C1CC(CC(=O)C2CCCCC2=O)C(=O)N1 (stereo not drawn)
- TGI [1]: > 100 µM
- TGI [2]: > 100 µM
- TGI [3]: > 100 µM
- TGI [4]: > 100 µM
- TGI [5]: > 100 µM
- TGI [6]: > 100 µM
- TGI [9]: > 100 µM
- TGI [7]: > 100 µM
- TGI [8]: > 100 µM

SMILES: IC[P+]1(c2ccccc2)CCCC1
- TGI [1]: > 100 µM
- TGI [2]: 89 µM
- TGI [3]: > 100 µM
- TGI [5]: 88.6 µM
- TGI [6]: > 100 µM
- TGI [9]: > 100 µM
- TGI [7]: > 100 µM
- TGI [8]: > 100 µM

SMILES: N=C1C(O)C2(I)c3ccccc3N3C(=N)C(O)C4c5ccccc5N1C4C32 (stereo not drawn)
- TGI [10]: > 100 µM
- TGI [1]: > 100 µM
- TGI [3]: > 100 µM
- TGI [4]: 30.1 µM
- TGI [5]: > 100 µM
- TGI [6]: 18.6 µM
- TGI [9]: > 100 µM
- TGI [7]: > 100 µM
- TGI [8]: > 100 µM

SMILES: Cc1nc(C(N)=O)c(N)n1CCN1CCN(C(=O)CCCCCCCCCCNC2N=CNc3nc[nH]c32)CC1 (stereo not drawn)
- TGI [1]: > 100 µM
- TGI [5]: > 100 µM
- TGI [6]: 81.9 µM
- TGI [9]: > 100 µM
- TGI [7]: > 100 µM
- TGI [8]: > 100 µM

SMILES: CC1=C([Se]CC(OC(=O)CC[Se]c2ccccc2)C(=O)NC(C)(C)C)C(=O)c2ccccc2C1=O (stereo not drawn)
- GI50 [10]: 1.63 µM
- TGI [10]: 3.18 µM
- GI50 [1]: 2.1 µM
- TGI [1]: 4.46 µM
- GI50 [2]: 2 µM
- TGI [2]: 4.56 µM
- GI50 [4]: 1.61 µM
- TGI [4]: 3 µM
- GI50 [5]: 2.82 µM
- TGI [5]: 6.42 µM
- GI50 [6]: 0.628 µM
- TGI [6]: 4.1 µM
- GI50 [9]: 0.638 µM
- TGI [9]: 2.05 µM
- GI50 [7]: 1.56 µM
- TGI [7]: 3.11 µM
- GI50 [8]: 1.96 µM
- TGI [8]: 3.64 µM

SMILES: c1ccc(C2ONC3=NCCN32)cc1 (stereo not drawn)
- GI50 [10]: 25.8 µM
- TGI [10]: 88.6 µM
- GI50 [1]: 62.9 µM
- TGI [1]: > 100 µM
- GI50 [2]: 25.3 µM
- TGI [2]: 78.6 µM
- GI50 [4]: > 100 µM
- TGI [4]: > 100 µM
- GI50 [5]: 1.97 µM
- TGI [5]: 9.02 µM
- GI50 [6]: 21.6 µM
- TGI [6]: 53.4 µM
- GI50 [9]: > 100 µM
- TGI [9]: > 100 µM
- GI50 [7]: 66.2 µM
- TGI [7]: > 100 µM
- GI50 [8]: 67.9 µM
- TGI [8]: > 100 µM
